The subject of one data set is CYP2D. In words: CYP activity in liver S9 of treated mice: dextromethorphan O-demethylation. In kind it is in vivo, Male ICR mice. To be noted: liver S9, dextromethorphan 5 µM. As to the method:
(§1) Twenty-four hours after the last treatment, the liver was excised and homogenized with three volumes of ice-cold 0.1 M potassium phosphate buffer (pH 7.4). The supernatant fraction was then separated as the S9 fraction from the mixture by centrifugation at 9000× g at 4 °C and stored at −80 °C until use.
(§2) To characterize the CYP activities in the harvested livers, phenacetin O-demethylation (using 80 µM of phenacetin) for CYP1A, dextromethorphan O-demethylation (using 5 µM of dextromethorphan) for CYP2D, and midazolam 1’-hydroxylation (using 5 µM of midazolam) for CYP3A were used as cocktail probe reactions. The level of protein in the S9 fraction was determined by Bradford assay. The cocktail probes were then incubated with 10 µL of each S9 fraction, potassium phosphate buffer (pH 7.4), and an NADPH generating system (NGS) in a final volume of 100 µL. After incubation for 30 min at 37 °C, ice-cold ACN containing 0.1% formic acid and IS (5 µM) was added to stop the reaction. Samples were then vortexed and centrifuged at 13,000× g for 10 min at 4 °C. Finally, the supernatants were transferred to LC-MS/MS vials for analysis.

The subject of another data set is CYP1A. Conditions: liver S9, phenacetin 80 µM.
In a further data set the test system is CYP3A. Briefly: CYP activity in liver S9 of treated mice: midazolam 1'-hydroxylation. To be noted: liver S9, KTC 60 mg/kg i.p. once, midazolam 5 µM, n = 3. As to the method: as §1, §2
A short description of data set [1]: Plasma pharmacokinetics of LOX, cis-LOX and trans-LOX after oral LOX in mice pretreated with DEX, KTC or vehicle. In kind it is in vivo, Male ICR mice. Conditions: mouse plasma, LOX 20 mg/kg oral, mean ± SE, n = 3. As to the method:
The acclimatized animals were divided into eight groups, with each group containing 3 mice: groups I and II, vehicle (corn oil); groups III and IV, DEX-treated; groups V and VI, vehicle (10% Ethanol); and groups VII and VIII, KTC-treated group. […] Then, animals were fasted for 12 hours with free access to water before starting the experiment. […]
After the oral administration of LOX, blood from groups I, III, V, and VII was collected from the tail at 0, 5, 10, 15, 30, 60, 120, and 240 min post-administration and placed into sodium heparin-containing tubes. After the last blood collection, the mice were sacrificed by cervical dislocation. Plasma was then prepared by centrifuging the blood at 4000× g for 15 min at 4 °C and stored at −80 °C until analysis. For analysis, each sample was prepared by mixing plasma (10 µL) and 90 µL of ACN containing 0.1% formic acid and 5 µM of tolbutamide as an internal standard (IS). […] Finally, 10 µL of sample supernatant was injected into the LC-MS/MS system. The PK parameters (the maximum plasma concentration [Cmax], time to reach the maximum plasma concentration [Tmax], elimination half-life [T1/2], and area under the plasma concentrations [AUC]) were analyzed by WinNonlin software (Version 2.1, Scientific Consulting, Louisville, KY, USA).
A Shimadzu Prominence UFLC system (Kyoto, Japan) connected to a TSQ vantage triple quadrupole mass spectrometer with a HESI-II spray source incorporated with a DGU-20A5 degasser, an LC-20AD pump, a SIL-20A autosampler, and a CTO-20A column oven was used for the analyses. A shim-pack GIS C18 column (150 × 3.0 mm, […]) was used to separate analytes in the samples. Mobile phases A and B were composed of water with formic acid and ACN with 0.1% formic acid, respectively, and the flow rate was 0.50 mL/min at 40 °C. The gradient conditions were as follows: 20% of B between 0 and 0.25 min, 20–80% of B between 0.25 and 9.75 min, 80–20% of B between 9.75 and 10 min, and 20% of B between 10 and 13 min. The MS was operated under the following conditions: electrospray ionization in negative mode at 3.0 kV, capillary temperature at 350 °C, vaporizer temperature at 300 °C, sheath gas pressure at 35 Arb, and auxiliary gas pressure at 10 Arb. Finally, Xcalibur software (Thermo Fisher Scientific Inc., Waltham, MA, USA) was used for data analysis.

Data set [2] can be described thus: Relative concentration of LOX and its metabolites in hepatic portal vein plasma 10 min post-LOX (HRMS). Type of data set: in vivo, Male ICR mice. To be noted: hepatic portal vein plasma 10 min after LOX 20 mg/kg oral, n = 3; for Relative concentration in plasma (DEX average % of area, VH corn oil = 100): DEX 40 mg/kg i.p. 3 days; for Relative concentration in plasma (KTC average % of area, VH 10% ethanol = 100): KTC 60 mg/kg i.p. single dose. As to the method: The acclimatized animals were divided into eight groups, with each group containing 3 mice: groups I and II, vehicle (corn oil); groups III and IV, DEX-treated; groups V and VI, vehicle (10% Ethanol); and groups VII and VIII, KTC-treated group. […] Then, animals were fasted for 12 hours with free access to water before starting the experiment. After fasting, LOX (20 mg/kg) was administered orally to […].
Similarly, blood from groups II, IV, VI, and VIII was collected from the hepatic portal vein 10 min post-LOX administration to identify metabolites of LOX and to analyze drug–drug interactions. Plasma from these samples was prepared as explained above. Then, 300 µL of ACN having 0.1% formic acid and 5 µM of the IS were mixed with 100 µL of each plasma sample. […] Supernatants were transferred into tubes and dried using a Labconco Speed Vac (Labconco Corporation, Kansas City, MO, USA). […] Each supernatant was transferred into an LCMS vial, and 5 µL were injected into a high-resolution mass spectrometer (HRMS).
HRMS coupled with ultrahigh performance liquid chromatography (UHPLC) was used to detect hydroxy-LOX and other metabolites of LOX. The UHPLC system, Dionex Ultimate 3000 (Dionex Softron GmbH, Germering, Germany) consisted of an HPG-3200SD Standard binary pump, a WPS 3000 TRS analytical autosampler, and a TCC-3000 SD column compartment. In this experiment, the HRMS was a Q Exactive Focus quadrupole-Orbitrap MS (Thermo Fisher Scientific, Bremen, Germany) equipped with a heated electrospray ionization (HESI-II) ion probe.
LOX was detected as a deprotonated ion [M-H]^− at m/z 245.1175 in negative ion mode. Therefore, negative ion mode was used with the following optimized conditions for LOX: spray voltage of 2.5 kV, capillary temperature of 320 °C, auxiliary gas at 12 aux unit, aux gas heater temperature of 200 °C, sheath gas at 35 aux units, and S-lens RF level of 50. LOX and its metabolites were separated using a 150 mm × 2.1 mm, 2.6-μm reverse-phase liquid chromatography column, Kinetex® C18 column (Phenomenex, CA, USA) at 40 °C. Furthermore, MS-grade solvents were used as the mobile phase in gradient elution mode: 0.1% aqueous formic acid as Solvent A and 0.1% formic acid in ACN as Solvent B. The flow was set to 0.22 mL/min with a gradient condition of Solvent B as 10% between 0 and 0.5 min, 10–50% between 0.5 and 21.5 min, 50–95% between 21.5 and 22.5 min, 95% between 22.5 and 25.5 min, 95–10% between 25.5 and 25.6 min, and 10% between 25.6 and 30 min.

[3] abbreviates: pretreated DEX 40 mg/kg i.p. 3 days.
Setting [4] is: pretreated KTC 60 mg/kg i.p. single dose.
Where [5] appears, read: pretreated VH (10% ethanol) i.p. single dose.
The mark [6] stands for this setting: pretreated VH (corn oil) i.p. 3 days.

Structures are written as SMILES.

Protocol for CYP1A: To characterize the CYP activities in the harvested livers, phenacetin O-demethylation (using 80 µM of phenacetin) for CYP1A, dextromethorphan O-demethylation (using 5 µM of dextromethorphan) for CYP2D, and midazolam 1’-hydroxylation (using 5 µM of midazolam) for CYP3A were used as cocktail probe reactions [21, 22]. The level of protein in the S9 fraction was determined by Bradford assay [23]. The cocktail probes were then incubated with 10 µL of each S9 fraction, potassium phosphate buffer (pH 7.4), and an NADPH generating system (NGS) in a final volume of 100 µL. After incubation for 30 min at 37 °C, ice-cold ACN containing 0.1% formic acid and IS (5 µM) was added to stop the reaction. Samples were then vortexed and centrifuged at 13,000× g for 10 min at 4 °C. Finally, the supernatants were transferred to LC-MS/MS vials for analysis.

For the compound `C[C@@H]1C[C@H]2[C@@H]3CCC4=CC(=O)C=C[C@]4(C)[C@@]3(F)[C@@H](O)C[C@]2(C)[C@@]1(O)C(=O)CO` [DEX, dexamethasone], the “Metabolic activity of other CYP enzymes (CYP2D, dextromethorphan O-demethylation), VH vs treated” value in the data set with CYP2D is given as “unaffected”. The “Metabolic activity of other CYP enzymes (CYP1A, phenacetin O-demethylation), VH vs treated” value in the data set with CYP1A is recorded as “unaffected”.

For `CC(=O)N1CCN(c2ccc(OCC3COC(Cn4ccnc4)(c4ccc(Cl)cc4Cl)O3)cc2)CC1` (stereo not shown) [KTC, ketoconazole], in the data set with CYP2D, the “Metabolic activity of other CYP enzymes (CYP2D, dextromethorphan O-demethylation), VH vs treated” value is reported as “unaffected”. Also, in the data set with CYP3A, the “Effect on the metabolism of CYP3A4 substrate (midazolam) compared to the VH group” value was “significantly decreased”.

For `CC(C(=O)O)c1ccc(CC2CCCC2O)cc1` (stereo not drawn) [cis-LOX], in data set [1] (setting [3]), the “AUC(0–60)” value worked out at 29.9 ± 4.4 µg·min/mL, the “AUC(0–∞)” value stood at 31.5 ± 4.4 µg·min/mL, the Cmax worked out at 1100 ± 200 ng/mL and the “T1/2 (elimination half-life)” value was determined as 13.9 ± 0.6 min. For the same compound, in data set [1] (setting [3]), the Tmax is 10.0 ± 1.0 min. In addition, in data set [1] (setting [4]), the “AUC(0–60)” value was found to be 49.0 ± 5.9 µg·min/mL, the “AUC(0–∞)” value amounted to 51.9 ± 6.1 µg·min/mL, the Cmax was found to be 1600 ± 100 ng/mL and the “T1/2 (elimination half-life)” value is 13.4 ± 0.6 min. Besides, the Tmax in data set [1] (setting [4]) was determined as 11.6 ± 0.8 min. Besides, in data set [1] (setting [5]), the “AUC(0–60)” value turned out to be 36.0 ± 3.9 µg·min/mL, the “AUC(0–∞)” value stood at 38.4 ± 4.4 µg·min/mL, the Cmax amounted to 1200 ± 100 ng/mL and the “T1/2 (elimination half-life)” value worked out at 13.3 ± 0.9 min. Besides, the Tmax in data set [1] (setting [5]) stood at 13.3 ± 0.8 min. For the same compound, in data set [1] (setting [6]), the “AUC(0–60)” value is 72.7 ± 12.4 µg·min/mL, the “AUC(0–∞)” value amounted to 75.8 ± 12.8 µg·min/mL, the Cmax was 2400 ± 300 ng/mL and the “T1/2 (elimination half-life)” value is recorded as 12.3 ± 0.3 min. Moreover, the time of peak concentration (Tmax) in data set [1] (setting [6]) was determined as 10.4 ± 0.7 min. For the same compound, in data set [2], the “Relative concentration in plasma (DEX average % of area, VH corn oil = 100)” value stood at 61.9 ± 3.9% and the “Relative concentration in plasma (KTC average % of area, VH 10% ethanol = 100)” value is 173.1 ± 5.8%. For the same compound, in data set [2] (listed as M2), the “Relative concentration in plasma (DEX average % of area, VH corn oil = 100)” value amounted to 61.91% and the “Relative concentration in plasma (KTC average % of area, VH 10% ethanol = 100)” value is given as 173.08%.

A word on the Cmax: it is the highest concentration seen after dosing. What is called Tmax is the time from dosing to the highest level.

The record behind these values is publication PMC6781309, “Assessing Drug Interaction and Pharmacokinetics of Loxoprofen in Mice Treated with CYP3A Modulators” (Pharmaceutics, 2019).
